In ChEMBL document CHEMBL5543105, “Total synthesis and structural modification of the dibenzylbutane lignan LCA as a potent anti-inflammatory agent against LPS-induced acute lung injury” (Eur J Med Chem, 2024):
The source made the active and inactive calls. The rule behind the calls is not given here.

Columns and labels:
[1] = test system: RAW264.7; test: Anti-inflammatory activity against mouse RAW264.7 cells assessed as reduction in LPS-induced IL-1beta level pretreated with compound for 1 hr followed by LPS-induction and measured after 24 hrs by ELISA analysis; format: functional, cell-based; conditions: dose 1.25-20 µM, time 25.0 hrs
[2] = test system: Mus musculus; test: Anti-inflammatory activity against LPS-induced acute […] injury C57BL/6 mouse model assessed as improvement in alveolar structure at 20 mg/kg, ip administered for 1 hr and measured after 6 hrs by H and E staining based analysis; format: functional, organism-based; conditions: time 7.0 hrs
[3] = test system: Mus musculus; test: Anti-inflammatory activity against LPS-induced acute […] injury C57BL/6 mouse model assessed as reduction in IL-1beta level in serum at 20 mg/kg, ip administered for 1 hr and measured after 6 hrs by ELISA analysis; format: functional, organism-based; conditions: time 7.0 hrs
[4] = test system: Mus musculus; test: Anti-inflammatory activity against LPS-induced acute […] injury C57BL/6 mouse model assessed as improvement in pulmonary hemorrhage at 20 mg/kg, ip administered for 1 hr and measured after 6 hrs by H and E staining based analysis; format: functional, organism-based; conditions: time 7.0 hrs
[5] = test system: RAW264.7; test: Anti-inflammatory activity against mouse RAW264.7 cells assessed as reduction in LPS-induced TNF-alpha level pretreated with compound for 1 hr followed by LPS-induction and measured after 24 hrs by ELISA analysis; format: functional, cell-based; conditions: dose 1.25-20 µM, time 25.0 hrs
[6] = test system: RAW264.7; test: Anti-inflammatory activity against mouse RAW264.7 cells assessed as inhibition of LPS-induced IL-6 mRNA expression pretreated with compound for 1 hr followed by LPS-induction and measured after 24 hrs by RT-qPCR analysis; format: functional, cell-based; conditions: dose 10-20 µM, time 25.0 hrs
[7] = test system: RAW264.7; test: Anti-inflammatory activity against mouse RAW264.7 cells assessed as reduction in NO level pretreated with compound for 1 hr followed by LPS-induction and measured after 24 hrs; format: functional, cell-based; conditions: dose 1.25-20 µM, time 25.0 hrs
[8] = test system: RAW264.7; test: Cytotoxicity against mouse RAW264.7 cells upto 20 uM incubated for 24 hrs by CCK-8 assay; format: toxicity, cell-based; conditions: raw264.7, 24 h
[9] = test system: Mus musculus; test: Anti-inflammatory activity against LPS-induced acute […] injury C57BL/6 mouse model assessed as reduction in lung edema at 20 mg/kg, ip administered for 1 hr and measured after 6 hrs by H and E staining based analysis; format: functional, organism-based; conditions: time 7.0 hrs
[10] = test system: Mus musculus; test: Anti-inflammatory activity against LPS-induced acute […] injury C57BL/6 mouse model assessed as reduction in congestion in lung at 20 mg/kg, ip administered for 1 hr and measured after 6 hrs by H and E staining based analysis; format: functional, organism-based; conditions: time 7.0 hrs
[11] = test system: RAW264.7; test: Anti-inflammatory activity against mouse RAW264.7 cells assessed as inhibition of LPS-induced nuclear translocation at 10 to 20 uM pretreated with compound for 1 hr followed by LPS-induction and measured after 4 hrs by DAPI staining based fluorescence microscopic analysis; format: functional, cell-based; conditions: dose 10-20 µM, time 5.0 hrs
[12] = test system: Mus musculus; test: Anti-inflammatory activity against LPS-induced acute […] injury C57BL/6 mouse model assessed as reduction in TNF-alpha level in BALF at 20 mg/kg, ip administered for 1 hr and measured after 6 hrs by ELISA analysis; format: functional, organism-based; conditions: time 7.0 hrs
[13] = test system: Mus musculus; test: Anti-inflammatory activity against LPS-induced acute […] injury C57BL/6 mouse model assessed as decrease in IL-1beta mRNA expression in lung at 20 mg/kg, ip administered for 1 hr and measured after 6 hrs by RT-qPCR analysis; format: functional, organism-based; conditions: time 7.0 hrs
[14] = test system: RAW264.7; test: Anti-inflammatory activity against mouse RAW264.7 cells assessed as inhibition of LPS-induced IL-1beta mRNA expression pretreated with compound for 1 hr followed by LPS-induction and measured after 24 hrs by RT-qPCR analysis; format: functional, cell-based; conditions: dose 10-20 µM, time 25.0 hrs
[15] = test system: Mus musculus; test: Anti-inflammatory activity against LPS-induced acute […] injury C57BL/6 mouse model assessed as decrease in TNF-alpha mRNA expression in lung at 20 mg/kg, ip administered for 1 hr and measured after 6 hrs by RT-qPCR analysis; format: functional, organism-based; conditions: time 7.0 hrs
[16] = test system: RAW264.7; test: Anti-inflammatory activity against mouse RAW264.7 cells assessed as inhibition of LPS-induced NO production at 20 uM incubated for 24 hrs; format: functional, cell-based
[17] = test system: RAW264.7; test: Anti-inflammatory activity against mouse RAW264.7 cells assessed as inhibition of LPS-stimulated nitric oxide production at 2.5 to 20 uM incubated for 5 hrs by Griess reagent based microplate reader analysis; format: functional, cell-based; conditions: dose 2.5-20 µM
[18] = test system: Mus musculus; test: Anti-inflammatory activity against LPS-induced acute […] injury C57BL/6 mouse model assessed as reduction in alveolar thickness in lung at 20 mg/kg, ip administered for 1 hr and measured after 6 hrs by H and E staining based analysis; format: functional, organism-based; conditions: time 7.0 hrs
[19] = test system: Mus musculus; test: Anti-inflammatory activity against LPS-induced acute […] injury C57BL/6 mouse model assessed as reduction in IL-6 level in BALF at 20 mg/kg, ip administered for 1 hr and measured after 6 hrs by ELISA analysis; format: functional, organism-based; conditions: time 7.0 hrs
[20] = test system: Mus musculus; test: Anti-inflammatory activity against LPS-induced acute […] injury C57BL/6 mouse model assessed as improvement in destruction of lung structure at 20 mg/kg, ip administered for 1 hr and measured after 6 hrs by H and E staining based analysis; format: functional, organism-based; conditions: time 7.0 hrs
[21] = test system: Mus musculus; test: Anti-inflammatory activity against LPS-induced acute […] injury C57BL/6 mouse model assessed as reduction in IL-1beta level in BALF at 20 mg/kg, ip administered for 1 hr and measured after 6 hrs by ELISA analysis; format: functional, organism-based; conditions: time 7.0 hrs
[22] = test system: Mus musculus; test: Anti-inflammatory activity against LPS-induced acute […] injury C57BL/6 mouse model assessed as reduction in wet weight to dry weight ratio in lung at 20 mg/kg, ip administered for 1 hr and measured after 6 hrs; format: functional, organism-based; conditions: time 7.0 hrs
[23] = test system: Mus musculus; test: Anti-inflammatory activity against LPS-induced acute […] injury C57BL/6 mouse model assessed as reduction in bleeding points in lung at 20 mg/kg, ip administered for 1 hr and measured after 6 hrs by H and E staining based analysis; format: functional, organism-based; conditions: time 7.0 hrs
[24] = test system: Mus musculus; test: Anti-inflammatory activity against LPS-induced acute […] injury C57BL/6 mouse model assessed as improvement in alveolar wall thickness at 20 mg/kg, ip administered for 1 hr and measured after 6 hrs by H and E staining based analysis; format: functional, organism-based; conditions: time 7.0 hrs
[25] = test system: Mus musculus; test: Anti-inflammatory activity against LPS-induced acute […] injury C57BL/6 mouse model assessed as reduction in IL-6 level in serum at 20 mg/kg, ip administered for 1 hr and measured after 6 hrs by ELISA analysis; format: functional, organism-based; conditions: time 7.0 hrs
[26] = test system: Mus musculus; test: Anti-inflammatory activity against LPS-induced acute […] injury C57BL/6 mouse model assessed as reduction in inflammatory cell infiltration at 20 mg/kg, ip administered for 1 hr and measured after 6 hrs by H and E staining based analysis; format: functional, organism-based; conditions: time 7.0 hrs
[27] = test system: RAW264.7; test: Anti-inflammatory activity against mouse RAW264.7 cells assessed as inhibition of LPS-induced p65 phosphorylation at 10 to 20 uM pretreated with compound for 1 hr followed by LPS-induction and measured after 4 hrs by Western blot analysis; format: functional, cell-based; conditions: dose 10-20 µM, time 5.0 hrs
[28] = test system: RAW264.7; test: Anti-inflammatory activity against mouse RAW264.7 cells assessed as reduction in LPS-induced IL-6 level pretreated with compound for 1 hr followed by LPS-induction and measured after 24 hrs by ELISA analysis; format: functional, cell-based; conditions: dose 1.25-20 µM, time 25.0 hrs
[29] = test system: RAW264.7; test: Anti-inflammatory activity against mouse RAW264.7 cells assessed as reduction in LPS-induced IkappaBalpha level at 10 to 20 uM pretreated with compound for 1 hr followed by LPS-induction and measured after 4 hrs by Western blot analysis; format: functional, cell-based; conditions: dose 10-20 µM, time 5.0 hrs
[30] = test system: Mus musculus; test: Anti-inflammatory activity against LPS-induced acute […] injury C57BL/6 mouse model assessed as improvement in lung edema at 20 mg/kg, ip administered for 1 hr and measured after 6 hrs by H and E staining based analysis; format: functional, organism-based; conditions: time 7.0 hrs
[31] = test system: Mus musculus; test: Anti-inflammatory activity against LPS-induced acute […] injury C57BL/6 mouse model assessed as decrease in IL-6 mRNA expression in lung at 20 mg/kg, ip administered for 1 hr and measured after 6 hrs by RT-qPCR analysis; format: functional, organism-based; conditions: time 7.0 hrs
[32] = test system: RAW264.7; test: Anti-inflammatory activity against mouse RAW264.7 cells assessed as inhibition of LPS-induced TNF-alpha mRNA expression pretreated with compound for 1 hr followed by LPS-induction and measured after 24 hrs by RT-qPCR analysis; format: functional, cell-based; conditions: dose 10-20 µM, time 25.0 hrs
[33] = test system: Mus musculus; test: Anti-inflammatory activity against LPS-induced acute […] injury C57BL/6 mouse model assessed as reduction in TNF-alpha level in serum at 20 mg/kg, ip administered for 1 hr and measured after 6 hrs by ELISA analysis; format: functional, organism-based; conditions: time 7.0 hrs

COc1cc(C[C@H](C(=O)N2CCN(c3cccc(C)c3C)CC2)[C@@H](Cc2cc(OC)c(O)c(OC)c2)C(=O)N2CCN(c3cccc(C)c3C)CC2)cc(OC)c1O
Activity [1]: Dose-Dependent Effect
Activity [2]: Active
Activity [3]: Active
Activity [4]: Active
Activity [5]: Dose-Dependent Effect
Activity [6]: Dose-Dependent Effect
Activity [7]: Dose-Dependent Effect
Activity [8]: Non-Toxic
Activity [9]: Active
Activity [10]: Active
Activity [11]: Active
Activity [12]: Active
Activity [13]: Active
Activity [14]: Dose-Dependent Effect
Activity [15]: Active
Activity [16]: Active
Activity [17]: Active
Activity [18]: Active
Activity [19]: Active
Activity [20]: Active
Activity [21]: Active
Activity [22]: Active
Activity [23]: Active
Activity [24]: Active
Activity [25]: Active
Activity [26]: Active
Activity [27]: Active
Activity [28]: Dose-Dependent Effect
Activity [29]: Active
Activity [30]: Active
Activity [31]: Active
Activity [32]: Dose-Dependent Effect
Activity [33]: Active
